Measured values published in US10894807B2 (Siemens Medical Solutions USA, Inc., priority 2011, dated 2021).

Target: human PSMA (Homo sapiens (Human), UniProt Q04609)
Experiment: Enzymatic assay for in vitro evaluation of PSMA inhibitors (fluorescent assay of PSMA activity, NAAG substrate, OPA detection of glutamate)
Assay type: biochemical
Conditions: for PSMA Blkg % (10 μM): compound at 10 μM

Chain of human PSMA (Q04609 whole entry): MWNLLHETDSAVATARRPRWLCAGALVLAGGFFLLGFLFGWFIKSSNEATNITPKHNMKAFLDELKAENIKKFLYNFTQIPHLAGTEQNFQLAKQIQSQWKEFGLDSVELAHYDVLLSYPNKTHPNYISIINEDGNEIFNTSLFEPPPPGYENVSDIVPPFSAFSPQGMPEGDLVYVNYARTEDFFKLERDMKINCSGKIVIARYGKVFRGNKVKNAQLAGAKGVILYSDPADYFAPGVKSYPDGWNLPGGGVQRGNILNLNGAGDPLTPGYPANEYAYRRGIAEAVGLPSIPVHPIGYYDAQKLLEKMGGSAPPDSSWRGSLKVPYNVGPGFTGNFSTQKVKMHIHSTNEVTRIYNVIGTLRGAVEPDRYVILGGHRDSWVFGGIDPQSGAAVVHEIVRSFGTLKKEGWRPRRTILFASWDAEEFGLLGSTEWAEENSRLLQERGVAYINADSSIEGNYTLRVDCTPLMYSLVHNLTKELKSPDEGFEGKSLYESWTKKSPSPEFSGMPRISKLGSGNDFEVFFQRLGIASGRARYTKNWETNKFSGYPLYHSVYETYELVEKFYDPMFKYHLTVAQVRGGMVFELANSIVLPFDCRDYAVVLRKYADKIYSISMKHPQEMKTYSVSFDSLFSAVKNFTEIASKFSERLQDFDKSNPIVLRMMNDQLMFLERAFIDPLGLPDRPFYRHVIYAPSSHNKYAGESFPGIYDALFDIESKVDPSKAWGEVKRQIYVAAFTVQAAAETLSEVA

Row | Compound | Ki | PSMA Blkg % (1.0 μM) | PSMA Blkg % (10 μM)
1 | O=C(O)CC[C@H](NC(=O)N[C@@H](CCCCNC(=O)c1cc(C(=O)NCCCC[C@H](NC(=O)N[C@@H](CCC(=O)O)C(=O)O)C(=O)O)cc(-n2cc(CCCF)nn2)c1)C(=O)O)C(=O)O [P246, (2S,2′S)-2,2′-(((((1S,1′S)-((5-(4-(3-Fluoropropyl)-1H-1,2,3-triazol-1-yl)isophthaloyl)bis(azanediyl))bis(1-carboxypentane-5,1-diyl))bis(azanediyl))bis(carbonyl))bis(azanediyl))dipentanedioic Acid] | 0.00016 µM | 100% | –
2 | O=C(O)CC[C@H](NC(=S)CN(O)C(=O)CCCc1ccc(-n2cc(CCCF)nn2)cc1)C(=O)O [P145, (S)-2-(2-(4-(4-(4-(3-Fluoropropyl)-1H-1,2,3-triazol-1-yl)phenyl)-N-hydroxy-butanamido)ethanethioamido)pentanedioic Acid] | – | – | 7%
3 | CN(C(=O)N[C@@H](CCC(=O)O)C(=O)O)[C@@H](CCCCn1cc(COCCOCCNc2ccc([N+](=O)[O-])cc2[N+](=O)[O-])nn1)C(=O)O [P172, (S)-2-(3-((S)-1-Carboxy-5-(4-((2-(2-(2,4-dinitrophenylamino)ethoxy)ethoxy)methyl)-1H-1,2,3-triazol-1-yl)pentyl)-3-methylureido)pentanedioic Acid] | 0.313 µM | – | –
4 | CCN(C(=O)N[C@@H](CCC(=O)O)C(=O)O)[C@@H](CCCCNC(=O)OCc1ccccc1)C(=O)O [P035, (9S, 13S)-10-Ethyl-3,11-dioxo-1-phenyl-2-oxa-4,10,12-triazapentadecane-9,13,15-tricarboxylic Acid] | – | – | 0%
5 | O=C(O)CC[C@H](NC(=O)N[C@@H](CCCCNC(=O)OCc1ccccc1)C(=O)O)C(=O)O [P033, (9S,13S)-3,11-Dioxo-1-phenyl-2-oxa-4,10,12-triazapentadecane-9,13,15-tricarboxylic Acid] | 0.00078 µM | – | 89%
6 | CC(F)C(=O)Nc1ccc(C(=O)NCCCCC(C(=O)O)N(C)C(=O)N[C@@H](CCC(=O)O)C(=O)O)cc1 (stereo partly drawn) [P158, (2S)-2-(3-((S)-1-Carboxy-5-(4-(2-fluoropropanamido)benzamido)pentyl)-3-methylureido)pentanedioic Acid] | 0.0344 µM | – | 99%
7 | C[C@@](Cc1cccc(NC(=O)Cn2cc(CCCF)nn2)c1)(NC(=O)N[C@@H](CCC(=O)O)C(=O)O)C(=O)O [P256, (S)-2-(3-((S)-2-Carboxy-1-(3-(2-(4-(3-fluoropropyl)-1H-1,2,3-triazol-1-yl)acetamido)-phenyl)propan-2-yl)ureido)pentanedioic Acid] | – | 27% | –
8 | O=C(O)CC[C@H](NC(=O)N(O)C(CCCCNC(=O)OCc1ccccc1)C(=O)O)C(=O)O (stereo partly drawn) [P069, (13S)-10-Hydroxy-3,11-dioxo-1-phenyl-2-oxa-4,10,12-triazapentadecane-9,13,15-tricarboxylic Acid] | 0.25 µM | – | 94%
9 | O=C(O)CCC(C(=O)O)N1C(=O)N[C@@H](CC2CCN(C(=O)c3ccc(-n4cc(CCCF)nn4)cc3)CC2)C1=O (stereo partly drawn) [P257, 2-((S)-4-((1-(4-(4-(3-Fluoropropyl)-1H-1,2,3-triazol-1-yl)benzoyl)piperidin-4-yl)methyl)-2,5-dioxoimidazolidin-1-yl)pentanedioic Acid] | – | 5% | –
10 | CC(C)(C)OC(=O)NCCCCN1CC(=O)N([C@@H](CCC(=O)O)C(=O)O)C(=O)C1 [P050, (S)-2-(4-(4-(tert-Butoxycarbonylamino)butyl)-2,6-dioxopiperazin-1-yl)pentanedioic Acid] | – | – | 0%
11 | O=C(O)CC[C@H](NC(=O)N(O)[C@@H](CCCCNC(=O)c1ccc(F)nc1)C(=O)O)C(=O)O [P182, (S)-2-(3-((S)-1-Carboxy-5-(6-fluoronicotinamido)pentyl)-3-hydroxyureido)pentanedioic Acid] | – | – | 92%
12 | O=C(O)CC[C@H](NC(=O)N(CCc1ccccc1)CC(=O)O)C(=O)O [P010, (S)-2-(3-(Carboxymethyl)-3-phenethylureido)pentanedioic Acid] | – | – | 0%
13 | CCN(CC)C(=O)c1cc(C(=O)N2CCN(C(=O)NCCCC[C@H](NC(=O)N[C@@H](CCC(=O)O)C(=O)O)C(=O)O)CC2)cc(-n2cc(CCCF)nn2)c1 [P264, (S)-2-(3-((S)-1-Carboxy-5-(4-(3-(diethylcarbamoyl)-5-(4-(3-fluoropropyl)-1H-1,2,3-triazol-1-yl)benzoyl)piperazine-1-carboxamido)pentyl)ureido)pentanedioic Acid] | – | 96% | –
14 | O=C(O)CC[C@H](NC(=O)N[C@@H](CSCc1ccc(F)cc1)C(=O)O)C(=O)O [P001] | 0.05 µM | – | 97%
15 | NCCOCCOCCOCCOCc1cn(-c2cc(C(=O)Nc3ccc(C[C@H](NC(=O)N[C@@H](CCC(=O)O)C(=O)O)C(=O)O)cc3)cc(C(=O)Nc3ccc(C[C@H](NC(=O)N[C@@H](CCC(=O)O)C(=O)O)C(=O)O)cc3)c2)nn1 [P294, (2S,2′S)-2,2′-(((((1S,1′S)-(((5-(4-(13-Amino-2,5,8,11-tetraoxatridecyl)-1H-1,2,3-triazol-1-yl)isophthaloyl)bis(azanediyl))bis(4,1-phenylene))bis(1-carboxyethane-2,1-diyl))-bis(azanediyl))bis(carbonyl))bis(azanediyl))dipentanedioic Acid] | – | 99% | –
16 | CN(C(=O)N[C@@H](CCCCNC(=O)OCc1ccccc1)C(=O)O)[C@@H](CCC(=O)O)C(=O)O [P019, (9S,13S)-12-Methyl-3,11-dioxo-1-phenyl-2-oxa-4,10,12-triazapentadecane-9,13,15-tricarboxylic Acid] | 0.0375 µM | – | 97%
17 | [N-]=[N+]=Nc1ccc(CCCC(=O)NS(=O)(=O)N[C@@H](CCC(=O)O)C(=O)O)cc1 [P181, (S)-2-((N-(4-(4-Azidophenyl)butanoyl)sulfamoyl)amino)pentanedioic Acid] | – | – | 39%
18 | O=C(O)CC[C@@H](C(=O)O)N1C(=O)/C(=C(\O)CCCCn2cc(CCCF)nn2)C(=O)N(Cc2ccccc2)C1=O [P102, (S,Z)-2-(3-Benzyl-5-(5-(4-(3-fluoropropyl)-1H-1,2,3-triazol-1-yl)-1-hydroxypentylidene)-2,4,6-trioxotetrahydropyrimidin-1(2H)-yl)pentanedioic Acid] | – | – | 0%
19 | O=C(O)CC[C@@H](C(=O)O)N1C(=O)/C(=C(\O)CCCc2ccc(-n3cc(CCCF)nn3)cc2)C(=O)N(Cc2ccccc2)C1=O [P101, (S,Z)-2-(3-Benzyl-5-(4-(4-(4-(3-fluoropropyl)-1H-1,2,3-triazol-1-yl)phenyl)-1-hydroxybutylidene)-2,4,6-trioxotetrahydropyrimidin-1(2H)-yl)pentanedioic Acid] | – | – | 0%
20 | Nc1ccc(/C(O)=C2\C(=O)NC(=O)N([C@@H](CCC(=O)O)C(=O)O)C2=O)cc1 [P127, (S,Z)-2-(5-((4-Aminophenyl)(hydroxy)methylene)-2,4,6-trioxotetrahydropyrimidin-1(2H)-yl)pentanedioic Acid] | – | – | 10%
21 | O=C(O)C(Cn1ccnn1)CP(=O)(O)O (centres unmarked) [P190, 2-((1H-1,2,3-Triazol-1-yl)methyl)-3-phosphonopropanoic Acid] | 0.188 µM | – | –
22 | O=C(O)CC[C@H](NC(=O)N[C@@H](CC1CCN(C(=S)Nc2ccc(-n3cc(CCCF)nn3)cc2)CC1)C(=O)O)C(=O)O [P250, (S)-2-(3-((S)-1-Carboxy-2-(1-((4-(4-(3-fluoropropyl)-1H-1,2,3-triazol-1-yl)phenyl)carbamothioyl)piperidin-4-yl)ethyl)ureido)pentanedioic Acid] | 0.0041 µM | 96% | –
23 | O=C(O)CC[C@H](NC(=O)N[C@@H](CCCCNC(=O)CC[C@H](NC(=O)Cn1cc(CCCF)nn1)C(=O)NCCCC[C@H](NC(=O)N[C@@H](CCC(=O)O)C(=O)O)C(=O)O)C(=O)O)C(=O)O [P261, (3S,7S,14S,23S,27S)-14-(2-(4-(3-Fluoropropyl)-1H-1,2,3-triazol-1-yl)acetamido)-5,13,17,25-tetraoxo-4,6,12,18,24,26-hexaazanonacosane-1,3,7,23,27,29-hexacarboxylic Acid] | 0.001 µM | 98% | –
24 | CN(C(=O)N[C@@H](CCC(=O)O)C(=O)O)[C@@H](CCCCNC(=O)CCCn1cc(CCCF)nn1)C(=O)O [P046, (S)-2-(3-((S)-1-Carboxy-5-(4-(4-(3-fluoropropyl)-1H-1,2,3-triazol-1-yl)-butanamido)pentyl)-3-methylureido)pentanedioic Acid] | 0.328 µM | – | 80%
25 | O=C(O)CC[C@H](NC(=O)N[C@@H](COC(=O)N1CCN(C(=O)OCc2ccccc2)CC1)C(=O)O)C(=O)O [P224, (S)-2-(3-((S)-2-((4-((Benzyloxy)carbonyl)piperazine-1-carbonyl)oxy)-1-carboxyethyl)ureido)pentanedioic Acid] | – | 65% | –
26 | O=C(O)CN(CC(=O)O)NC(=O)NC(CSCc1ccccc1)C(=O)O (centres unmarked) [P013, 2,2′-(2-((2-(Benzylthio)-1-carboxyethyl)carbamoyl)hydrazine-1,1-diyl)diacetic Acid] | – | – | 16%
27 | CC(F)C(=O)Nc1ccc(C(=O)NCCCC[C@@H](C(=O)O)N(O)C(=O)N[C@@H](CCC(=O)O)C(=O)O)cc1 (stereo partly drawn) [P157, (2S)-2-(3-((1S)-1-Carboxy-5-(4-(2-fluoropropanamido)benzamido)pentyl)-3-hydroxyureido)pentanedioic Acid] | > 0.313 µM | – | 79%
28 | O=C(O)CC[C@H](NC(=O)N[C@@H](CCCCNC(=O)c1ccc(F)nc1)C(=O)O)C(=O)O [P002, (S)-2-(3-((S)-1-Carboxy-5-(6-fluoronicotinamido)pentyl)ureido)pentanedioic Acid] | – | – | 92%
